Measurements as given in US7064133B2, “Quinoline derivatives process of synthesis and medicaments containing these derivatives” (Bioalliance Pharma, priority 2001, dated 2006).

Legend:
Assay type in all cases: cell-based
HeLa = test: Cytotoxicity, MTT to formazan test, adherent cells; settings: at 500 μM
Experimental: (§1) The toxicity of the compounds is evaluated by a test of biotransformation of MTT to formazan by cellular mitochondrial dehydrogenases.

CEM = test: Cytotoxicity, MTT to formazan test, cells in suspension; settings: at 500 μM
Experimental: as §1

[1] = system: integration of viral DNA into the host genome; test: Inhibition of the integration of viral DNA into the host genome (PCR, densitometry) in infected CEM cells; settings: 24 hours
Experimental: This test consists in bringing CEM cells into contact with the supernatant of infected cells containing the infectious virions. After 2 hours, the cells are washed and placed again in RPMI medium containing the compound according to the invention for 24 hours (BioA53). The DNA of the cells is then extracted using a genomic DNA preparation kit (QiaBlood, Qiagen™). This DNA is the target for PCR amplifications aimed at evaluating, on the one hand, the quantity of total viral DNA present in the solution, and, on the other hand, the quantity of viral DNA integrated into the cellular genome. The latter amplification takes place in two stages: the first step uses a PCR primer homologous to a sequence of the retroviral DNA; the second primer is homologous to the repetitive genomic Alu sequences. The second stage is a nested PCR which makes it possible to visualize the retroviral DNA.
The quantity of DNA is evaluated by densitometry after separation of the amplification products on agarose gel.

Compound	cytotoxicity (MTT) (HeLa)	cytotoxicity (MTT) (CEM)	decrease in the quantity of DNA integrated ([1]; 50 μM, CEM cells)	inhibition of DNA integrated ([1]; 100 μM, CEM cells)	quantity of total viral DNA ([1]; treatment of CEM cells with the compound)
O=C(NCc1ccc(O)cc1O)c1ccc2ccc(C(=O)[O-])c(O)c2n1.[Na+] [BioA163, sodium 2-(2,4-dihydroxybenzylcarbamoyl)-8-hydroxyquinoline-7-carboxylate]	lacks cytotoxicity	lacks cytotoxicity	–	–	–
O=C(NCc1ccc(O)c(O)c1)c1ccc2ccc(C(=O)[O-])c(O)c2n1.[Na+] [BioA53, sodium 2-(3,4-dihydroxybenzylcarbamoyl)-8-hydroxyquinoline-7-carboxylate]	lacks cytotoxicity	lacks cytotoxicity	at least 80%	inhibition of the entire DNA integrated	not affected
